Activity calls are given as the source filed them.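 The calls were made as follows: active = compounds giving half or more protection of infected cells from virus-caused growth loss, again on retest; inactive = the rest.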 Where a SMILES comes first, the peptide text is derived from it. The star is where a group is joined. OSu = O=C1CCC(=O)N1O*
System: CEM cells HIV-1 protection, formazan growth assay
Assay: NCI AIDS Antiviral Assay
Settings: for IC50: measured here: growth of uninfected CEM cells
Procedure, shortened: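 Category rules: moderately active means at least 50% protection on retest, and confirmed active means 100% protection reproducibly. The underlying data came from a formazan growth assay in HIV-1-infected CEM cells.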

COc1cc(C)c2c(c1C=O)Oc1c(c(C)c(O)c3c1C(O)OC3=O)OC2=O (centres undefined)
EC50: > 93.3 µM
IC50: 53.7 µM

Cc1ccc(S(=O)(=O)Nn2c(S)c(C#N)c(-c3ccc([N+](=O)[O-])cc3)c(C#N)c2=O)cc1
EC50: > 200 µM
IC50: 30.9 µM

CNC(=O)CNC(=O)N(C[C@@H]1CCCN1C(=O)[C@H](CC(C)C)NC(=O)OC(C)(C)C)C(C)C
EC50: > 200 µM
IC50: > 200 µM

CC(c1ccccc1)/[N+]([O-])=C/c1ccccc1 (centres undefined)
EC50: > 1120 µM
IC50: > 1120 µM

CC(C)CC(NC(=O)C(Cc1ccc(O)cc1)NC(=O)C(CO)NC(=O)C(CCC(=O)O)NC(=O)C1CCCN1C(=O)C(CC(C)C)NC(=O)C(C)NC(=O)CNC(=O)C(N)CCC(=O)O)C(=O)NCC(=O)O (centres undefined) (H-EGALPESYLG-OH; configuration not given here)
outcome: inactive

O=P(OCC1CCCO1)(OCC1CCCO1)OCC1CCCO1 (centres undefined)
outcome: inactive

CC(=O)Nc1ccc(/C=c2\sc3nnc(/C=C/c4ccccc4)n3c2=O)cc1
EC50: > 93.3 µM
IC50: > 93.3 µM

COc1ccc(C2=NNC(=O)CC2)cc1OC
EC50: > 1070 µM
IC50: 550 µM

Ic1nc(-c2ccccc2)[nH]c1I
outcome: inactive

Cc1c(C(=O)CC(=O)C(=O)Nc2cc(Cl)ccc2Cl)[n+](=O)c2ccccc2n1[O-]
EC50: > 8.71 µM
IC50: > 8.71 µM

COC(=O)C1C/C(=C/N(C)C)C(=S)N1 (centres undefined)
EC50: > 200 µM
IC50: > 200 µM

COC(=O)C(C(=O)C(=O)NC1=C(Cl)C(=O)c2ccccc2C1=O)c1csc(-n2nc(-c3ccccc3)cc2-c2ccccc2)n1 (centres undefined)
EC50: > 11.2 µM
IC50: > 11.2 µM

S=C(N/N=C/c1ccccc1)Nc1ccc(Oc2ccc(NC(=S)N/N=C/c3ccccc3)cc2)cc1
EC50: 8.91 µM
IC50: 11.7 µM

O=C1C(=O)N(c2ccc(Cl)cc2)C(=O)C(=O)C1c1nc2ccccc2s1
EC50: > 18.6 µM
IC50: > 18.6 µM

O=C1OC(=O)c2c1ccc1ccc(Cl)cc21
outcome: inactive

CC1CCC/C(=N/NC(N)=O)C12CC2 (centres undefined)
EC50: > 200 µM
IC50: > 200 µM

Cc1cc(O)c(C(=O)CC2(O)C(=O)Nc3c(Cl)cc(Cl)cc32)c(=O)o1 (centres undefined)
EC50: > 468 µM
IC50: > 468 µM

CO[C@@H]1C[C@H]2[C@@H]3CC[C@H]([C@@H](C)CO)[C@@]3(C)CC[C@@H]2[C@@]2(C)CC[C@H]3C[C@]312
EC50: > 200 µM
IC50: 102 µM

O=C(/C=C\c1ccccc1)c1ccc(-c2ccc([N+](=O)[O-])cc2)cc1
outcome: inactive

c1ccc(C2N3CCCCC3[C@@H]3c4[nH]c5ccccc5c4CCN23)cc1 (some centres undefined)
EC50: > 20.9 µM
IC50: > 20.9 µM

CCCCCC(=Nc1n[nH]nc1C(N)=O)OCC
EC50: > 200 µM
IC50: > 200 µM

ClCCCSSCCCCl
EC50: > 200 µM
IC50: 31.6 µM

COc1ccccc1N=NC1=C2Nc3ccccc3N=C1N(c1ccccc1OC)C(=S)N2c1ccccc1C
outcome: inactive

CCCCCCCCOCC(CO)OCCCCCCCC (centres undefined)
EC50: > 251 µM
IC50: 132 µM

NC(=O)OCC(O)COc1ccc(Cl)cc1 (centres undefined)
EC50: > 200 µM
IC50: > 200 µM

Nc1ncnc2c1nnn2C1C=CC(CP(=O)(O)O)C1 (centres undefined)
EC50: > 200 µM
IC50: > 200 µM

CC1(C)CC(=O)c2c(ccc(C(=O)C[C@@H](N)CO)c2N)O1
outcome: inactive

O=Cc1ccc2c(c1)CC1(C2)Cc2ccc3c(c2C1)CCC3 (centres undefined)
EC50: > 200 µM
IC50: 7.41 µM

NCCCCC(NC(=O)C(N)Cc1ccc(O)cc1)C(=O)NC(CCCCN)C(=O)NC(CCCCN)C(=O)ON1C(=O)CCC1=O (centres undefined) (H-YKKK-OSu; configuration not given here)
EC50: 162 µM
IC50: > 200 µM

CNc1ccc(Cl)cc1S(=O)(=O)c1ccccc1Br
EC50: > 200 µM
IC50: 3.89 µM

COc1ccc(C(=CCC(C)C2CCC3[C@@H]4C(OC(C)=O)CC5CC(OC(C)=O)CC[C@]5(C)C4CC(OC(C)=O)[C@]23C)c2ccc(OC)cc2)cc1 (some centres undefined)
EC50: > 200 µM
IC50: 95.5 µM

COc1ccc(-c2c(N)n(-c3nc4ccccc4s3)c(=O)c3cc([N+](=O)[O-])ccc23)cc1
EC50: > 100 µM
IC50: 1.07 µM

C=C1CN(C(=O)c2cc3cc(OC)c(OC)c(OC)c3[nH]2)c2cc([N+](=O)[O-])ccc21
EC50: 26.9 µM
IC50: > 200 µM

COc1cc(/C=C2\CCC(C)C3=C2N=c2s/c(=C/c4ccc(Cl)cc4)c(=O)n2C3c2cc(OC)c(OC)c(OC)c2)cc(OC)c1OC (centres undefined)
EC50: > 200 µM
IC50: 102 µM

CC1(O)C2(c3ccccc3)CCC[N+]1(C)CC2 (centres undefined)
outcome: inactive

COc1ccc(OC)c2c1C=C[C@H](C1(C)SCCS1)C2C(C)=O (some centres undefined)
EC50: > 200 µM
IC50: 8.91 µM

COC(=O)[C@H](Cc1ccccc1)NC(=O)OCC1OC(n2cc(C)c(=O)[nH]c2=O)CC1N=[N+]=[N-] (some centres undefined)
EC50: > 200 µM
IC50: > 200 µM

CC(=O)C(C(c1ccccc1)N1CCCc2ccccc21)N1CCOCC1 (centres undefined)
EC50: > 200 µM
IC50: 61.7 µM

COc1ccccc1NC(=O)/C(=C/C1CC(=O)NC1=S)C(C)=O (centres undefined)
EC50: > 200 µM
IC50: > 200 µM

Cc1cn(C2OC(COC(=O)c3ccccc3)C(OC(=O)c3ccccc3)C2I)c(=O)[nH]c1=O (centres undefined)
EC50: > 200 µM
IC50: 37.2 µM

CC1(C)OC2C3CCC(C)(C3)C2(c2ccccc2)O1 (centres undefined)
EC50: > 87.1 µM
IC50: > 87.1 µM

O=C1C(=O)C(c2ccccc2)Oc2ccccc21 (centres undefined)
EC50: > 200 µM
IC50: 25.1 µM

Cc1ccc(S(=O)(=O)c2ccc(N)cc2)cc1
outcome: inactive

Cc1cc(O)cc2oc(=O)c3c(O)cc(O)cc3c12
EC50: > 479 µM
IC50: 12.6 µM

Source: PubChem BioAssay AID179 (DTP/NCI, 2004)
